Read-outs that look alike come from different tables or passages of the source. Values belong to the compound of their own block, whether it stands above or below them.
Legend:
[1] = tested on: MDA-MB468 and MDA-MB-231 human breast cancer cell lines; assay: Cytotoxicity by clonogenic assay (FIG. 4 legend), MDA-MB468 and MDA-MB-231 stated jointly; format: cell-based; settings: MDA-MB468 and MDA-MB-231 cell lines, one value for both; read-out: IC50, agent alone
Procedure: After 48 hours, drugs were withdrawn and allowed to grow in fresh medium for determination of cytotoxicity by clonogenic assay. Data presented are the mean±SE of three different estimations. […] Data presented are the mean+/−SE of three different estimations.

[2] = tested on: MCF7, T47D, MDA-MB-231 and MDA-MB-468 human breast cancer cell lines; assay: Clonogenic assay (Example 5, FIG. 8), four breast cancer cell lines stated jointly; format: cell-based; settings: one value for all cell lines of FIG. 8, read-out: IC50, agent alone
Procedure: (§1) After 48 hours, drugs were withdrawn and allowed to grow in fresh medium for determination of cytotoxicity by clonogenic assay. The data presented are the mean±SE of three different estimations.
(§2) To test this hypothesis, the IC50 of TMZ in four human breast cancer cell lines was determined using a clonogenic assay (Vachai et al., Nat. Proto. 3: 1122-1116, 2006). The cell lines used were MCF7, T47D (both ER/PR/HER2-positive), MDA-MB-231 and MDA-MB-468 (both triple-negative).

[3] = tested on: T47D and MCF7 human breast cancer cell lines; assay: Cytotoxicity by clonogenic assay (FIG. 3 legend), T47D and MCF7 stated jointly; format: cell-based; settings: one value for both, read-out: IC50, agent alone
MCF7 breast cancer cells = assay: Sulforhodamine B (SRB) colorimetric cytotoxicity assay, MCF7; settings: for IC50: read-out: IC50 (cytotoxicity), agent alone
Procedure: After 48 hours, cells were harvested and processed for cytotoxicity determination by clonogenic assay. Data presented are the mean±SE of three different estimations.
The IC50 (the drug concentration needed to prevent cell proliferation by 50%) of TMZ was determined using a sulforhodamine B (SRB) colorimetric assay. This assay relies on the ability of SRB to bind the protein components of cells that have been fixed to tissue culture plates by trichloroacetic acid (TCA) (Vachai V, Kirtikara K. Sulforhodamine B colorimetric assay for cytotoxicity screening. Nat. Proto. 3: 1122-1116, 2006). MCF7 and T47D cells were seeded in 96-well plates at a density of 500 cells per well. After 24 hours, while the cells were in the log phase of cell growth, the cells were treated with different concentrations of TMZ (1-1000 μM) for 48 hours. […] The cells were subsequently fixed with 10% (w/v) of tricholoroacetic acid, washed with double distilled water, and stained with 0.4% SRB. Cells were then repeatedly washed with 1% (v/v) of acetic acid to remove the unbound dye. The protein bound dye was dissolved in 10 mM Tris-base solution (pH 10.5). The developed color was measured at 564 nm. The percentage of cell survival as a function of drug concentration was then plotted to determine the IC50 value.

T47D breast cancer cells = assay: Sulforhodamine B (SRB) colorimetric cytotoxicity assay, T47D; format: cell-based, human; settings: for IC50: read-out: IC50 (cytotoxicity), agent alone
Procedure: Data are the mean±SE of three different estimations.
The developed color was measured at 564 nm.

[4] = tested on: MDA-MB-468 breast cancer cells; assay: Sulforhodamine B (SRB) colorimetric cytotoxicity assay, MDA-MB-468; settings: for IC50: read-out: IC50 (cytotoxicity), agent alone
[5] = tested on: MDA-MB-231 breast cancer cells; assay: Sulforhodamine B (SRB) colorimetric cytotoxicity assay, MDA-MB-231; settings: for IC50: read-out: IC50 (cytotoxicity), agent alone
Pol-β = Pol-β (Homo sapiens, UniProt P06746); assay: In vitro base excision repair (BER) assay with 32P-U-DNA substrate; format: biochemical; settings: dose-dependent manner (FIG. 2B)
Source text: The reaction conditions are described below. […] Data are representative of three different experiments.
An assay was developed that permits in vitro analysis of BER as described in FIG. 2A.

MDA-MB-231 cells = assay: Clonogenic assay (Example 5, FIG. 8), MDA-MB-231; format: cell-based; settings: Homo sapiens, 48 hours, then fresh medium, read-out: IC50 of TMZ alone or in the named combination
Procedure: as §1, §2

MDA-MB-468 cells = assay: Clonogenic assay (Example 5, FIG. 8), MDA-MB-468; format: cell-based; settings: Homo sapiens, 48 hours, then fresh medium, read-out: IC50 of TMZ alone or in the named combination
Procedure: as §1, §2

T47D cells = assay: Clonogenic assay (Example 5, FIG. 8), T47D; format: cell-based; settings: Homo sapiens, 48 hours, then fresh medium, read-out: IC50 of TMZ alone or in the named combination
Procedure: as §1, §2

MCF7 cells = assay: Clonogenic assay (Example 5, FIG. 8), MCF7; format: cell-based; settings: Homo sapiens, 48 hours, then fresh medium, read-out: IC50 of TMZ alone or in the named combination
Procedure: as §1, §2

SMILES: Nc1nc(OCc2ccccc2)c2nc[nH]c2n1 [BG, O^6-benzylguanine]
IC50 (MCF7 breast cancer cells; MCF7 cells, 48 hours): ~91 µM
IC50 [1]: ~75 µM
IC50 (T47D breast cancer cells; T47D cells, 48 hours): ~149 µM
IC50 ([4]; MDA-MB-468 cells, 48 hours): ~100 µM
IC50 ([5]; MDA-MB-231 cells, 48 hours): ~77 µM
IC50 [3]: ~75 µM

SMILES: Cn1nnc2c(C(N)=O)ncn2c1=O [TMZ, Temozolomide]
IC50 (MDA-MB-231 cells): 334 µM
IC50 (MCF7 breast cancer cells; Homo sapiens, MCF7, 48 h): 303 µM
reduction of the IC50 of TMZ (MCF7 breast cancer cells; MCF7 cells, TMZ with BG (2.5 μM)): about 4 fold
reduction of the IC50 of TMZ (MCF7 breast cancer cells; MCF7 cells, TMZ with NSC-666715 (15 μM)): about 1.5 fold
reduction of the IC50 of TMZ (MCF7 breast cancer cells; MCF7 cells, TMZ with both BG (2.5 μM) and NSC-666715 (15 μM)): about 7 fold
reduction in the IC50 of TMZ (MCF7 breast cancer cells; NSC-666715 and O6-benzylguanine in combination with temozolomide, cell line not stated at this place (figure matches MCF7)): 7 fold
IC50 (MDA-MB-468 cells): 298 µM
IC50 (T47D breast cancer cells; Homo sapiens, T47D, 48 h): 303 µM
reduction of the IC50 of TMZ (T47D breast cancer cells; T47D cells, TMZ with BG (2.5 μM)): about 4 fold
reduction of the IC50 of TMZ (T47D breast cancer cells; T47D cells, TMZ with NSC-666715 (15 μM)): about 1.1 fold
reduction of the IC50 of TMZ (T47D breast cancer cells; T47D cells, TMZ with both BG (2.5 μM) and NSC-666715 (15 μM)): about 8 fold
IC50 ([4]; Homo sapiens, MDA-MB-468, 48 h): 316 µM
reduction of the IC50 of TMZ ([4]; MDA-MB-468 cells, TMZ with BG (2.5 μM)): about 6 fold
reduction of the IC50 of TMZ ([4]; MDA-MB-468 cells, TMZ with NSC-666715 (15 μM)): about 0.1 fold
reduction of the IC50 of TMZ ([4]; MDA-MB-468 cells, TMZ with both BG (2.5 μM) and NSC-666715 (15 μM)): about 15 fold
IC50 ([5]; Homo sapiens, MDA-MB-231, 48 h): 344 µM
reduction of the IC50 of TMZ ([5]; MDA-MB-231 cells, TMZ with BG (2.5 μM)): about 2.8 fold
reduction of the IC50 of TMZ ([5]; MDA-MB-231 cells, TMZ with NSC-666715 (15 μM)): about 1.5 fold
reduction of the IC50 of TMZ ([5]; MDA-MB-231 cells, TMZ with both BG (2.5 μM) and NSC-666715 (15 μM)): about 6.6 fold
IC50 (T47D cells): 334 µM
IC50 (MCF7 cells): 331 µM

SMILES: COc1cc(/C=C/C(=O)CC(=O)/C=C/c2ccc(O)c(OC)c2)ccc1O [curcumin, (1E,6E)-1,7-bis(4-hydroxy-3-methoxy-phenyl)hepta-1,6-diene-3,5-dione]
IC50 ([2]; Homo sapiens): 5 µM

The next lines start with results.

IC50 [2]: 100 µM
SMILES: Cc1cc(S(=O)(=O)Nc2n[nH]c(Nc3ccc(Cl)cc3)n2)c(S)cc1Cl [NSC-666715, Benzosulfonamide, 4-chloro-N-[5-[(4-chlorophenyl)amino]1H-1,2,4-triazol-3-yl]-2-mercapto-5-methyl-(9Cl)]
IC50 [1]: ~100 µM
IC50 [3]: ~100 µM

strand-displacement synthesis (Pol-β; 32P-U-DNA substrate, in the presence of Fen-1): blocked
Pol-β-mediated 1-nt incorporation (Pol-β; 32P-U-DNA substrate): blocked
complete repair of 32P-U-DNA by the SN-BER pathway (Pol-β; with DNA ligase I): blocked
complete repair of 32P-U-DNA by the LP-BER pathway (Pol-β; with Fen-1 and DNA ligase I): blocked
SMILES: Nc1cc(I)n([C@H]2C[C@H](O)[C@@H](COP(=O)(O)O)O2)c(=O)n1 [NSC-124854, 5′-cytidylic acid, 2′-deoxy-6-iodo-(9CI)]

Reference: patent US8815828B2, “Therapeutic combinations for use in neoplasia” (University of Florida Research Foundation, Inc., priority 2008, dated 2014)
